These molecules were tested on male KK mice (assay: Blood glucose lowering effect in diabetic KK mice). Details: Mus musculus, po, 72 h, 15 to 20 weeks old, feed containing 0.03% of the compound, three days, blood glucose on the 3rd day vs control group, read-out: Blood glucose lowering efficacy (%).
Assay type: in vivo
From the text: Six-week-old male KK mice were purchased from CLEA Japan, Inc. and then were fed until 15 to 20 weeks old and affected with diabetes. The mice were individually fed during the adaptation period and the test period, and water and feed (FR2, Funabashi Farm) were freely ingested.
At the start of the experiment, after body weight measurement, blood was collected from the tail vein of the mice into a heparin-coated glass tube and centrifuged, and then plasma was separated. The glucose level in the plasma was measured by Glucoloader GXT (A&T Corp.), and individuals having a blood glucose level of about 350 mg/dl or more were selected. Groups each having 3 to 4 mice were used for the experiment, and the mice were grouped to make the average body weight and the average blood glucose level similar. Each compound was administered to a compound administration group by feeding a mixture with feed containing 0.03% of the compound. A separate group in which the mice were fed only with feed was a control group.
The experiment period (drug administration period) was three days. The grouping day was the 0th day. On the 3rd day, body weight was measured and blood was collected from the tail vein to measure the blood glucose level.
The blood glucose lowering efficacy was determined by the following formula.
Blood glucose lowering efficacy=[(Control group blood glucose level−Compound administration group blood glucose level)/Control group blood glucose level]×100

| Structure (SMILES) | inhibition in vivo at 0.03 % in feed [%] |
| --- | --- |
| CCc1ccc2ccc(F)c(F)c2c1CNC(=O)c1c(OC)cc(O)c2c1OC1=CC(O)=C(C(C)=O)C(=O)[C@]12C [Example 193, (9aS)-8-Acetyl-N-[(2-ethyl-7,8-difluoro-1-naphthyl)methyl]-1,7-dihydroxy-3-methoxy-9a-methyl-9-oxo-9,9a-dihydrodibenzo[b,d]furan-4-carboxamide] | 50 |
| CCc1ccc2ccc(Cl)cc2c1CNC(=O)c1c(OC)cc(O)c2c1OC1=CC(O)=C(C(C)=O)C(=O)[C@]12C [Example 186, (9aS)-8-Acetyl-N-[(7-chloro-2-ethyl-1-naphthyl)methyl]-1,7-dihydroxy-3-methoxy-9a-methyl-9-oxo-9,9a-dihydrodibenzo[b,d]furan-4-carboxamide] | 53 |
| CCc1ccc2c(F)cc(F)cc2c1CNC(=O)c1c(OC)cc(O)c2c1OC1=CC(O)=C(C(C)=O)C(=O)[C@]12C [Example 185, (9aS)-8-Acetyl-N-[(2-ethyl-5,7-difluoro-1-naphthyl)methyl]-1,7-dihydroxy-3-methoxy-9a-methyl-9-oxo-9,9a-dihydrodibenzo[b,d]furan-4-carboxamide] | 27 |
| CCC#CCOc1cc(C)c(CNC(=O)c2c(OC)cc(O)c3c2OC2=CC(O)=C(C(C)=O)C(=O)[C@]23C)c(C)c1C [Example 103, (9aS)-8-Acetyl-1,7-dihydroxy-3-methoxy-9a-methyl-9-oxo-N-[2,3,6-trimethyl-4-(2-pentynyloxy)benzyl]-9,9a-dihydrodibenzo[b,d]furan-4-carboxamide] | 62 |
| C=CCO/N=C(\C)C1=C(O)C=C2Oc3c(C(=O)NCc4c(C)cc(NS(=O)(=O)c5ccc(Cl)cc5Cl)cc4C)c(OC)cc(O)c3[C@]2(C)C1=O [Example 162, (9aS)-8-[(1E)-N-(Allyloxy)ethaneimidoyl]-N-(4-{[(2,4-dichlorophenyl)sulfonyl]amino}-2,6-dimethylbenzyl)-1,7-dihydroxy-3-methoxy-9a-methyl-9-oxo-9,9a-dihydrodibenzo[b,d]furan-4-carboxamide] | 43 |
| COc1cc(O)c2c(c1C(=O)NCc1c(C)c(C)c(C)c3ccccc13)OC1=CC(O)=C(C(C)=O)C(=O)[C@]12C [Example 69, (9aS)-8-Acetyl-1,7-dihydroxy-3-methoxy-9a-methyl-N-[(2,3,4-trimethyl-1-naphthyl)methyl]-9-oxo-9,9a-dihydrodibenzo[b,d]furan-4-carboxamide] | 47 |
| COc1cc(O)c2c(c1C(=O)NCc1c(C)cc(NS(=O)(=O)c3ccc(Cl)cc3Cl)cc1C)OC1=CC(O)=C(C(C)=O)C(=O)[C@]12C [Example 111, (9aS)-8-Acetyl-N-(4-{[(2,4-dichlorophenyl)sulfonyl]amino}-2,6-dimethylbenzyl)-1,7-dihydroxy-3-methoxy-9a-methyl-9-oxo-9,9a-dihydrodibenzo[b,d]furan-4-carboxamide] | 31 |
| CCc1c(C)cc2ccccc2c1CNC(=O)c1c(OC)cc(O)c2c1OC1=CC(O)=C(C(C)=O)C(=O)[C@]12C [Example 116, (9aS)-8-Acetyl-N-[(2-ethyl-3-methyl-1-naphthyl)methyl]-1,7-dihydroxy-3-methoxy-9a-methyl-9-oxo-9,9a-dihydrodibenzo[b,d]furan-4-carboxamide] | 32 |
